From PubChem BioAssay (NCI)
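In this assay, cells in 96-well plates receive the compound at five concentrations for 48 hours. Endpoints are linearly interpolated between the surrounding concentrations. GI50 is the concentration that inhibits growth by half. TGI: concentration producing complete growth inhibition.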

Columns and labels:
Assay in all cases: NCI anticancer screen, dose series, 48 h
786-0 renal = test system: 786-0 renal
A498 renal = test system: A498 renal
A549 NSCLC = test system: A549 NSCLC
ACHN renal = test system: ACHN renal
BT-549 breast = test system: BT-549 breast
CAKI-1 renal = test system: CAKI-1 renal
COLO 205 colon = test system: COLO 205 colon
DU-145 prostate = test system: DU-145 prostate
EKVX NSCLC = test system: EKVX NSCLC
HCC-2998 colon = test system: HCC-2998 colon
HCT-116 colon = test system: HCT-116 colon
HCT-15 colon = test system: HCT-15 colon
HL-60(TB) leukemia = test system: HL-60(TB) leukemia
HOP-62 NSCLC = test system: HOP-62 NSCLC
HOP-92 NSCLC = test system: HOP-92 NSCLC
HS 578T breast = test system: HS 578T breast
HT29 colon = test system: HT29 colon
IGROV1 ovarian = test system: IGROV1 ovarian
K-562 leukemia = test system: K-562 leukemia
KM12 colon = test system: KM12 colon
LOX IMVI melanoma = test system: LOX IMVI melanoma
M14 melanoma = test system: M14 melanoma
MALME-3M melanoma = test system: MALME-3M melanoma
MCF7 breast = test system: MCF7 breast
MDA-MB-231 breast = test system: MDA-MB-231 breast
MDA-MB-435 = test system: MDA-MB-435
MDA-MB-468 breast = test system: MDA-MB-468 breast

COc1ccc(OC)c(/C=C/C(=O)c2nc3ccccc3n2Cc2ccc(F)cc2)c1
GI50 (786-0 renal): 2.93 µM
TGI (786-0 renal): 9.51 µM
GI50 (A498 renal): 34.8 µM
TGI (A498 renal): > 100 µM
GI50 (A549 NSCLC): 3.27 µM
TGI (A549 NSCLC): > 100 µM
GI50 (ACHN renal): 2.94 µM
TGI (ACHN renal): 9.13 µM
GI50 (BT-549 breast): 2.61 µM
TGI (BT-549 breast): 7.6 µM
GI50 (CAKI-1 renal): 3.08 µM
TGI (CAKI-1 renal): > 100 µM
GI50 (COLO 205 colon): 2.61 µM
TGI (COLO 205 colon): 8.08 µM
GI50 (DU-145 prostate): 3.53 µM
TGI (DU-145 prostate): > 100 µM
GI50 (EKVX NSCLC): 2.77 µM
TGI (EKVX NSCLC): > 100 µM
GI50 (HCC-2998 colon): 1.95 µM
TGI (HCC-2998 colon): 3.93 µM
GI50 (HCT-116 colon): 1.61 µM
TGI (HCT-116 colon): 3.06 µM
GI50 (HCT-15 colon): 1.62 µM
TGI (HCT-15 colon): 3.69 µM
GI50 (HL-60(TB) leukemia): 1.57 µM
TGI (HL-60(TB) leukemia): 5.93 µM
GI50 (HOP-62 NSCLC): 3.08 µM
TGI (HOP-62 NSCLC): 11.2 µM
GI50 (HOP-92 NSCLC): 2.88 µM
TGI (HOP-92 NSCLC): 43.8 µM
GI50 (HS 578T breast): 3.12 µM
TGI (HS 578T breast): > 100 µM
GI50 (HT29 colon): 2.34 µM
TGI (HT29 colon): 5.43 µM
GI50 (IGROV1 ovarian): 3.01 µM
TGI (IGROV1 ovarian): 11.1 µM
GI50 (K-562 leukemia): 2.52 µM
TGI (K-562 leukemia): > 100 µM
GI50 (KM12 colon): 2.52 µM
TGI (KM12 colon): 7.14 µM
GI50 (LOX IMVI melanoma): 1.56 µM
TGI (LOX IMVI melanoma): 3.06 µM
GI50 (M14 melanoma): 2.67 µM
TGI (M14 melanoma): 9.56 µM
GI50 (MALME-3M melanoma): 3 µM
TGI (MALME-3M melanoma): 14.3 µM
GI50 (MCF7 breast): 2.15 µM
TGI (MCF7 breast): > 100 µM
GI50 (MDA-MB-231 breast): 2 µM
TGI (MDA-MB-231 breast): 4.43 µM
GI50 (MDA-MB-435): 2.02 µM
TGI (MDA-MB-435): 4.94 µM
GI50 (MDA-MB-468 breast): 2.11 µM
TGI (MDA-MB-468 breast): 5.8 µM
